Laboratory results taken from patent US12486272B2 (NIHON NOHYAKU CO., LTD., priority 2019, dated 2025).

Key:
[1] = test system: Dirofilaria immitis; experiment: Larval motility assay on Dirofilaria immitis; settings: 72 h, L1 stage larvae, 3 days, relative to DMSO only, read-out: percent motility inhibition
Description: Larval Motility Assay on Dirofilaria immitis
Five hundred L1 stage larvae of D. immitis were diluted in a predetermined conditioned medium and introduced into each well of a 96-well plate. DMSO diluted solutions of various compounds of the present invention were added at the final concentration of 50 ppm to the wells of the 96-well plate. The plate was allowed to stand for 3 days, and then larval motility was examined. The percent motility inhibition in the wells of each treatment was calculated relative to the wells of treatment with DMSO only.

[2] = test system: Rhipicephalus sanguineus; experiment: Assay for transdermal parasiticidal activity against nymphs of Rhipicephalus sanguineus; assay type: in vivo; settings: 48 h, read-out: mortality rate
Excerpt: Assay for Transdermal Parasiticidal Activity Against Nymphs of Rhipicephalus sanguineus
DMSO diluted solutions of various compounds of the present invention were individually diluted to the final concentration of 100 ppm with an acetone/triton mixture and applied to the inside of vented sample bottles. After overnight drying, ten nymphs of R. sanguineus were introduced into each bottle, and the mortality rate was examined two days later. Aberrant adults were regarded as the dead.

[3] = test system: Haemonchus contortus; experiment: Larval motility assay on Haemonchus contortus; settings: 96 h, L1 stage larvae, 4 days, relative to DMSO only, read-out: percent motility inhibition
Description: Larval Motility Assay on Haemonchus contortus DMSO diluted solutions of various compounds of the present invention were added at the final concentration of 50 ppm to the wells of a 96-well plate containing a predetermined conditioned medium. Twenty L1 stage larvae of H. contortus were introduced into each well of the 96-well plate. The plate was allowed to stand for 4 days, and then larval motility was examined. The percent motility inhibition in the wells of each treatment was calculated relative to the wells of treatment with DMSO only.

[4] = test system: Ctenocephalides felis; experiment: whole plant or invertebrate; assay type: in vivo; settings: 50 ppm in bovine blood, oral via feeder, adults, following day, read-out: mortality rate

SMILES	inhibition at 50 ppm [1] [%]	mortality at 100 ppm [2] [%]	inhibition at 50 ppm [3] [%]	mortality at 50 ppm [4] [%]
CCS(=O)(=O)c1cc(/C(=N/OCCSC)OC)cnc1-c1nc2cc(C(F)(F)C(F)(F)F)nnc2n1C [Compound 1-1, methyl 5-ethylsulfonyl-N-(2-methylthioethoxy)-6-(6-pentafluoroethyl-3-methyl-3H-imidazo[4,5-c]pyridazin-2-yl)nicotinimidate]	≥ 50	≥ 50	≥ 50	≥ 50
CCS(=O)(=O)c1cc(/C(=N/OCCS(C)(=O)=O)OC)cnc1-c1nc2cc(C(F)(F)C(F)(F)F)nnc2n1C [Compound 1-3, Methyl 5-ethylsulfonyl-N-(2-methylsulfonylethoxy)-6-(6-pentafluoroethyl-3-methyl-3H-imidazo[4,5-c]pyridazin-2-yl)nicotinimidate]	≥ 50	–	≥ 50	≥ 50
CCS(=O)(=O)c1cc(/C(Br)=N/OCCSC)cnc1-c1nc2cc(C(F)(F)C(F)(F)F)nnc2n1C [Compound 1-16]	≥ 50	–	–	–
CCS(=O)(=O)c1cc(/C(=N/OCCSC)SC)cnc1-c1nc2cc(C(F)(F)C(F)(F)F)nnc2n1C [Compound 1-19, Methyl 5-ethylsulfonyl-N-(2-methylthioethoxy)-6-(6-pentafluoroethyl-3-methyl-3H-imidazo[4,5-c]pyridazin-2-yl)nicotinyl thioimidate]	≥ 50	≥ 50	≥ 50	–
CCS(=O)(=O)c1cc(/C(=N/OCCSC)n2cncn2)cnc1-c1nc2cc(C(F)(F)C(F)(F)F)nnc2n1C [Compound 1-22]	≥ 50	–	≥ 50	≥ 50
